Laboratory results as given in publication PMC6522510 (Nature Communications, 2019).
Counter-ions that a name gives are not always drawn. Like-named read-outs stand apart in the source and are kept apart here.

Experiments:
Set-up in all cases: species or system AML cell lines (8); Primary HTS, single concentration about 10 uM, Cell Titer Glo viability; log10 luminescence, per cent inhibition relative to cycloheximide control
Details in all cases: 72 h, relative to cycloheximide control, log10 luminescence, inhibitor
[1] = system: CHRF288-11
[2] = system: CMK
[3] = system: CMS
[4] = system: M07e
[5] = system: ML-2
[6] = system: MOLM-13
[7] = system: MV4-11
[8] = system: U937

SMILES	CHRF288-11 %inh ([1]; CHRF288-11 %inh, 10 µM)	CMK %inh ([2]; CMK %inh, 10 µM)	CMS %inh ([3]; CMS %inh, 10 µM)	M07e %inh ([4]; M07e %inh, 10 µM)	ML-2 %inh ([5]; ML-2 %inh, 10 µM)	MOLM-13 %inh ([6]; MOLM-13 %inh, 10 µM)	MV4-11 %inh ([7]; MV4-11 %inh, 10 µM)	U937 %inh ([8]; U937 %inh, 10 µM)	CHRF288-11 %inh [1]	CMK %inh [2]	CMS %inh [3]	M07e %inh [4]	ML-2 %inh [5]	MOLM-13 %inh [6]	MV4-11 %inh [7]	U937 %inh [8]
CN(CCCCCCCCCCN(C)C(=O)Oc1cccc([N+](C)(C)C)c1)C(=O)Oc1cccc([N+](C)(C)C)c1 [SJ000287334-2, DEMECARIUM BROMIDE]	5.292%	0.3844%	0.249%	6.779%	3.342%	14.75%	26.64%	24.11%								
CN(CCCCCCCCCCN(C)C(=O)Oc1cccc([N+](C)(C)C)c1)C(=O)Oc1cccc([N+](C)(C)C)c1 [SJ000287334-3, DEMECARIUM BROMIDE]	-4.258%	4.147%	4.988%	11.04%	2.323%	13.7%	33.39%	32.99%								
CNCC(O)c1ccc(OC(=O)C(C)(C)C)c(OC(=O)C(C)(C)C)c1 (stereo not shown) [SJ000287343-2, DIPIVEFRIN HYDROCHLORIDE]									9.226%	-4.432%	-0.6385%	1.591%	3.768%	33.32%	8.373%	7.06%
COCCCC/C(=N\OCCN)c1ccc(C(F)(F)F)cc1 [SJ000287487-5, FLUVOXAMINE MALEATE]									7.313%	-1.719%	-2.805%	1.409%	4.445%	5.945%	0.9693%	7.709%
COC(=O)C1=C(C)NC(C)=C(C(=O)OC(C)C)C1c1cccc2nonc12 (stereo not shown) [SJ000287510-2, ISRADIPINE]									8.592%	-2.127%	-2.562%	0.2973%	-1.199%	6.188%	2.426%	3.366%
Cc1cccc(C)c1NC(=O)C(C)N (stereo not shown) [SJ000287515-4, TOCAINIDE HYDROCHLORIDE]									-1.466%	-3.02%	-0.9728%	1.522%	2.731%	2.63%	-0.903%	-0.5289%
CCOc1cc(CC(=O)N[C@@H](CC(C)C)c2ccccc2N2CCCCC2)ccc1C(=O)O [SJ000287528-2, REPAGLINIDE]	3.798%	-2.471%	0.05176%	3.133%	3.177%	-0.4831%	0.6192%	-2.093%								
CCOc1cc(CC(=O)N[C@@H](CC(C)C)c2ccccc2N2CCCCC2)ccc1C(=O)O [SJ000287528-3, REPAGLINIDE]	0.4521%	-1.863%	-3.811%	1.002%	-0.6814%	1.863%	-2.004%	0.8964%								
CCN[C@H]1C[C@H](C)S(=O)(=O)c2sc(S(N)(=O)=O)cc21 [SJ000287570-2, DORZOLAMIDE HYDROCHLORIDE]									-4.447%	0.1634%	-2.24%	-0.4811%	-0.8167%	5.665%	-1.46%	2.321%
NS(=O)(=O)c1cc2c(cc1Cl)NC(C1CC3C=CC1C3)NS2(=O)=O (stereo not shown) [SJ000287770-4, CYCLOTHIAZIDE]									-0.8826%	4.526%	2.052%	-1.741%	0.8137%	4.774%	2.178%	3.095%
CCOC(=O)c1ncn2c1CN(C)C(=O)c1cc(F)ccc1-2 [SJ000287880-4, FLUMAZENIL]									1.517%	-1.15%	5.754%	1.865%	-1.521%	-0.5944%	0.7722%	0.9807%
O=C1Nc2ccc(I)cc2C1=Cc1cc(Br)c(O)c(Br)c1 [SJ000287883-4, GW 5074 | GW5074 | RAF1 KINASE INHIBITOR I | U7401/61/2 | GW5074]									7.111%	3.747%	1.257%	1.287%	-0.3991%	3.135%	1.335%	2.224%
COc1cc2c(cc1O)CC[C@@H]1[C@@H]2CC[C@]2(C)[C@@H](O)CC[C@@H]12 [SJ000288002-4, 2-METHOXYESTRADIOL | 2-METHOXYESTRADIOL | PANZEM | PULMOLAR | 2-ME | 2-MEOE2 | 2ME2 | NSC-659853 | | 2-METHOXYESTRADIOL | 2-ME | 2-MEOE2 | 2ME2 | NSC-659853 | | 2-METHOXYESTRADIOL (2-MEOE2)]	60.77%	133.7%	122.6%	111%	66.58%	91.74%	99.75%	95.83%								
COc1cc2c(cc1O)CC[C@@H]1[C@@H]2CC[C@]2(C)[C@@H](O)CC[C@@H]12 [SJ000288002-5, 2-METHOXYESTRADIOL | 2-METHOXYESTRADIOL | PANZEM | PULMOLAR | 2-ME | 2-MEOE2 | 2ME2 | NSC-659853 | | 2-METHOXYESTRADIOL | 2-ME | 2-MEOE2 | 2ME2 | NSC-659853 | | 2-METHOXYESTRADIOL (2-MEOE2)]	61.44%	118%	96.86%	94.34%	56.77%	80.44%	76.13%	80.21%								
Cc1ccc(=O)n(-c2ccccc2)c1 [SJ000288087-4, PIRFENIDONE]									10.42%	-5.144%	4.387%	-1.785%	-0.2811%	2.774%	8.387%	-2.099%
CCCCCCCCCCCCCCSCC(=O)O [SJ000288209-4, TETRADECYLTHIOACETIC ACID]									-0.5942%	-1.764%	-0.2083%	1.198%	-0.6377%	-1.133%	-0.2387%	-2.154%
Clc1cnc(Oc2ccc(Oc3ncc(Cl)cc3Cl)cc2)c(Cl)c1 [SJ000288225-4, TCPOBOP]									4.243%	-2.209%	-0.7867%	1.992%	1.606%	-2.278%	0.7208%	-1.704%
